A short description of assay [1]: Inhibition of NS5A in HCV genotype 2a infected in human Huh7.5/J6/JFH1/EMCVIRES/hRlucNeo cells assessed as inhibition of replicon levels incubated for 72 hrs by luciferase reporter gene assay. (In antiviral work, replicon cells carry a viral genome segment that copies itself.)
A short description of assay [2]: Inhibition of NS5A in HCV genotype 1b infected in human HuH7.5/Con1/SG-Neo(I)-hRluc2aUb cells assessed as inhibition of replicon levels incubated for 72 hrs by luciferase reporter gene assay.
Assay [3] in a line: Inhibition of NS5A in HCV genotype 1a infected in human HuH7.5/Con1/SG-Neo(I)-hRluc2aUb cells assessed as inhibition of replicon levels incubated for 72 hrs by luciferase reporter gene assay.
The nature of assay [4]: Inhibition of NS5A in HCV genotype 6a infected in human HuH7.5/Con1/SG-Neo(I)-hRluc2aUb cells assessed as inhibition of replicon levels incubated for 72 hrs by luciferase reporter gene assay.
The nature of assay [5]: Inhibition of NS5A in HCV genotype 3a infected in human HuH7.5/Con1/SG-Neo(I)-hRluc2aUb cells assessed as inhibition of replicon levels incubated for 72 hrs by luciferase reporter gene assay.
Assay [6] in a line: Inhibition of NS5A in HCV genotype 4a infected in human HuH7.5/Con1/SG-Neo(I)-hRluc2aUb cells assessed as inhibition of replicon levels incubated for 72 hrs by luciferase reporter gene assay.

pIC50: −log10 of the molar value.

Broadly, the pIC50 is the IC50 on a negative log10 scale, so that one unit is a factor of ten.

`COC(=O)N[C@H](C(=O)N1CCC[C@H]1c1ncc(-c2ccc(N3CC4CC3CN4c3ccc(-c4cnc([C@@H]5CCCN5C(=O)[C@@H](NC(=O)OC)C(C)C)[nH]4)cc3)cc2)[nH]1)C(C)C`: the pIC50 is 8.40 in assay [1] and 8.43 in assay [2].

As to `COC(=O)N[C@H](C(=O)N1CCC[C@H]1c1nc(C2CC2)c(-c2ccc3c(c2)OCC(C)(C)COc2cc(-c4[nH]c([C@@H]5CCCN5C(=O)[C@@H](NC(=O)OC)C(C)C)nc4C4CC4)ccc2-3)[nH]1)C(C)C`, the pIC50 was 8.17 in assay [1] and 9.94 in assay [2].

For the molecule `COC(=O)N[C@H](C(=O)N1CCC[C@H]1c1ncc(-c2ccc3c(ccc4cc(-c5cnc([C@@H]6[C@@H]7CC[C@@H](C7)N6C(=O)[C@@H](NC(=O)OC)C(C)C)[nH]5)sc43)c2)[nH]1)C(C)C`, the negative logarithm of the IC50 (pIC50) was 10.96 in assay [1] and 10.89 in assay [2].

Turning to `COC(=O)N[C@H](C(=O)N1CCC[C@H]1c1ncc(-c2ccc3c(c2)OCC(C)(C)COc2cc(-c4cnc([C@@H]5CCCN5C(=O)[C@@H](NC(=O)OC)C(C)C)[nH]4)ccc2-3)[nH]1)C(C)C`, the negative logarithm of the IC50 (pIC50) in assay [1] is 9.75; in assay [2], 10.16.

Turning to `COC(=O)N[C@H](C(=O)N1CCC[C@H]1c1ncc(-c2ccc3c(c2)OCc2cc(-c4cnc([C@@H]5CCCN5C(=O)[C@@H](NC(=O)OC)C(C)C)[nH]4)sc2-3)[nH]1)C(C)C`, the pIC50 in assay [3] is 10.51; in assay [1] it was 10.52; in assay [4], 10.26; in assay [5], 10.12; in assay [6], 11.05; in assay [2], 10.70.

For the molecule `COC(=O)N[C@H](C(=O)N1CCC[C@H]1c1ncc(-c2ccc(N3CCN(c4ccc(-c5cnc([C@@H]6CCCN6C(=O)[C@@H](NC(=O)OC)C(C)C)[nH]5)cc4)CC3)cc2)[nH]1)C(C)C`, the negative-log IC50 (pIC50) in assay [1] was 8.34; in assay [2] it was 9.58.

With `COC(=O)N[C@H](C(=O)N1CCC[C@H]1c1ncc(-c2ccc(C34CCC(c5ccc(-c6cnc([C@@H]7CCCN7C(=O)[C@@H](NC(=O)OC)C(C)C)[nH]6)cc5)(CC3)CC4)cc2)[nH]1)C(C)C`, the pIC50 in assay [1] was 7.47; in assay [2] it was 9.51.

For the molecule `COC(=O)N[C@H](C(=O)N1CCC[C@H]1c1ncc(-c2ccc3c(c2)OCCCOc2cc(-c4cnc([C@@H]5CCCN5C(=O)[C@@H](NC(=O)OC)C(C)C)[nH]4)ccc2-3)[nH]1)C(C)C`, the pIC50 in assay [1] was 9.50; in assay [2], 9.54.

Regarding `COC(=O)N[C@H](C(=O)N1CCC[C@H]1c1ncc(-c2ccc3c(c2)OCCCCOc2cc(-c4cnc([C@@H]5CCCN5C(=O)[C@@H](NC(=O)OC)C(C)C)[nH]4)ccc2-3)[nH]1)C(C)C`, the results for the pIC50 in assay [1] and in assay [2] were 8.89 and 9.71, respectively.

On to `COC(=O)N[C@H](C(=O)N1CCC[C@H]1c1ncc(-c2ccc3c(c2)OCC2(CC2)COc2cc(-c4cnc([C@@H]5CCCN5C(=O)[C@@H](NC(=O)OC)C(C)C)[nH]4)ccc2-3)[nH]1)C(C)C`, for which the pIC50 in assay [1] was 8.74; in assay [2] it was 9.87.

Consider `COC(=O)N[C@H](C(=O)N1CCC[C@H]1c1ncc(-c2ccc3c(c2)OCCCOc2cc(-c4[nH]c([C@@H]5CCCN5C(=O)[C@@H](NC(=O)OC)C(C)C)nc4Cl)ccc2-3)[nH]1)C(C)C`, for which the negative logarithm of the IC50 (pIC50) in assay [1] was 10.28; in assay [2] it was 10.29.

As for `COC(=O)N[C@H](C(=O)N1CCC[C@H]1c1nc(Cl)c(-c2ccc3c(c2)OCCCOc2cc(-c4[nH]c([C@@H]5CCCN5C(=O)[C@@H](NC(=O)OC)C(C)C)nc4Cl)ccc2-3)[nH]1)C(C)C`, the pIC50 in assay [1] was 10.51; in assay [2] it was 10.72.

In the case of `COC(=O)N[C@H](C(=O)N1CCC[C@H]1c1ncc(-c2ccc3c(c2)CCc2cc(-c4cnc([C@@H]5CCCN5C(=O)[C@@H](NC(=O)OC)C(C)C)[nH]4)sc2-3)[nH]1)C(C)C`, the pIC50 in assay [1] and in assay [2] was 10.68 throughout.

As for `COC(=O)N[C@H](C(=O)N1CCC[C@H]1c1ncc(-c2ccc3c(ccc4cc(-c5cnc([C@@H]6CCCN6C(=O)[C@@H](NC(=O)OC)C(C)C)[nH]5)sc43)c2)[nH]1)C(C)C`, the pIC50 in assay [3] is 10.57; in assay [1] it was 11.30; in assay [4] it was 10.55; in assay [5], 10.33; in assay [6], 11.52; in assay [2] it was 10.92.

Turning to `COC(=O)N[C@H](C(=O)N1CCC[C@H]1c1ncc(-c2ccc3c(c2)OCCc2cc(-c4cnc([C@@H]5CCCN5C(=O)[C@@H](NC(=O)OC)C(C)C)[nH]4)sc2-3)[nH]1)C(C)C`, the pIC50 is 7.97 in assay [1] and 10.66 in assay [2].

For the molecule `COC(=O)N[C@H](C(=O)N1CCC[C@H]1c1nc(Cl)c(-c2ccc3c(c2)CCCc2cc(-c4[nH]c([C@@H]5CCCN5C(=O)[C@@H](NC(=O)OC)C(C)C)nc4Cl)sc2-3)[nH]1)C(C)C`, the pIC50 was 10.28 in assay [1] and 10.70 in assay [2].

Take `COC(=O)N[C@H](C(=O)N1CCC[C@H]1c1nc(Cl)c(-c2ccc3c(c2)OCCc2cc(-c4[nH]c([C@@H]5CCCN5C(=O)[C@@H](NC(=O)OC)C(C)C)nc4Cl)sc2-3)[nH]1)C(C)C`: the values for the pIC50 in assay [1] and in assay [2] were 8.89 and 11.10, respectively.

On to `COC(=O)N[C@H](C(=O)N1CCC[C@H]1c1ncc(-c2ccc3c(c2)CC2(C3)Cc3ccc(-c4cnc([C@@H]5CCCN5C(=O)[C@@H](NC(=O)OC)C(C)C)[nH]4)cc3C2)[nH]1)C(C)C`, for which the figures for the negative-log IC50 (pIC50) in assay [1] and in assay [2] were 7.57 and 10.10, respectively.

Consider `COC(=O)N[C@H](C(=O)N1CCC[C@H]1c1ncc(-c2ccc3c(c2)OCC(C)(C)COc2cc(-c4[nH]c([C@@H]5CCCN5C(=O)[C@@H](NC(=O)OC)C(C)C)nc4Cl)ccc2-3)[nH]1)C(C)C`, for which the negative logarithm of the IC50 (pIC50) is 9.17 in assay [1] and 10.68 in assay [2].

Regarding `COC(=O)N[C@H](C(=O)N1CCC[C@H]1c1nc(Cl)c(-c2ccc3c(c2)OCC(C)(C)COc2cc(-c4[nH]c([C@@H]5CCCN5C(=O)[C@@H](NC(=O)OC)C(C)C)nc4Cl)ccc2-3)[nH]1)C(C)C`, the values for the negative logarithm of the IC50 (pIC50) in assay [1] and in assay [2] were 9.49 and 11.40, respectively.

Consider `COC(=O)N[C@H](C(=O)N1CCC[C@H]1c1ncc(-c2ccc3c(c2)CCCc2cc(-c4cnc([C@@H]5CCCN5C(=O)[C@@H](NC(=O)OC)C(C)C)[nH]4)sc2-3)[nH]1)C(C)C`, for which the values for the pIC50 in assay [1] and in assay [2] were 9.10 and 10.68, respectively.

On to `COC(=O)N[C@H](C(=O)N1[C@H]2CC[C@H](C2)[C@H]1c1ncc(-c2ccc3c(ccc4cc(-c5cnc([C@@H]6[C@@H]7CC[C@@H](C7)N6C(=O)[C@@H](NC(=O)OC)C(C)C)[nH]5)sc43)c2)[nH]1)C(C)C`, for which the pIC50 was 9.47 in assay [1] and 10.68 in assay [2].

In the case of `COC(=O)N[C@H](C(=O)N1CCC[C@H]1c1ncc(-c2ccc3c(c2)CCc2cc(-c4cnc([C@@H]5CCCN5C(=O)[C@@H](NC(=O)OC)C(C)C)[nH]4)ccc2-3)[nH]1)C(C)C`, the pIC50 in assay [1] is 11.05; in assay [2] it was 10.82.

Regarding `COC(=O)N[C@H](C(=O)N1CCC[C@H]1c1ncc(-c2ccc(-c3ccc(-c4ccc(-c5cnc([C@@H]6CCCN6C(=O)[C@@H](NC(=O)OC)C(C)C)[nH]5)cc4)cc3)cc2)[nH]1)C(C)C`, the pIC50 is 7.59 in assay [1] and 9.87 in assay [2].

Consider `CCc1nc([C@@H]2CCCN2C(=O)[C@@H](NC(=O)OC)C(C)C)[nH]c1-c1ccc2c(c1)OCC(C)(C)COc1cc(-c3[nH]c([C@@H]4CCCN4C(=O)[C@@H](NC(=O)OC)C(C)C)nc3CC)ccc1-2`, for which the pIC50 in assay [1] is 7.10; in assay [2], 9.66.

On to `COC(=O)N[C@H](C(=O)N1CCC[C@H]1c1ncc(-c2ccc3c(ccc4sc(-c5cnc([C@@H]6CCCN6C(=O)[C@@H](NC(=O)OC)C(C)C)[nH]5)nc43)c2)[nH]1)C(C)C`, for which, in assay [2], the pIC50 was 10.14.

For `COC(=O)N[C@H](C(=O)N1CCC[C@H]1c1nc(-c2ccc(-c3ccc(-c4c[nH]c([C@@H]5CCCN5C(=O)[C@@H](NC(=O)OC)C(C)C)n4)cc3)cc2)c[nH]1)C(C)C` [BMS-790052], the pIC50 in assay [1] is 11.05; in assay [2], 10.64.

The record behind these values is BindingDB's records for doi:10.1021/acs.jmedchem.9b01562 (Lupin, 2019).
